Values after ≈ are worked out from the molar mass of the structure shown. Active and inactive are the calls of the source. The rule behind the calls is not given here.

The subject of series [1] is Pseudomonas aeruginosa. The experiment in a line: Antibacterial activity against Pseudomonas aeruginosa ATCC 27853 assessed as growth inhibition after 18 hrs by monochromator plate assay. It counts as functional.
The nature of series [2]: Cytotoxicity against HEK293 cells assessed as cell viability after 20 hrs by fluorescence assay. Format: cell-based. Conditions: human.
For a further series, the system named is Blood. The experiment in a line: (§1) Haemolytic activity against human whole blood after 70 mins by monochromator plate reader. It counts as ADME, tissue-based. Conditions: blood, 1.167 h.
Series [3] can be described thus: as §1. It counts as ADME, tissue-based. The settings on record: whole blood.
Series [4] relates to Klebsiella pneumoniae. The experiment in a line: Antibacterial activity against Klebsiella pneumoniae ATCC 700603 assessed as growth inhibition at 32 ug/ml after 18 hrs by microplate reader assay relative to control. It counts as functional. Conditions: for inhibition: dose 32.0 µg/ml.
The subject of series [5] is Pseudomonas aeruginosa. The experiment in a line: Antibacterial activity against Pseudomonas aeruginosa ATCC 27853 assessed as growth inhibition at 32 ug/ml after 18 hrs by monochromator plate assay relative to control. Format: functional.
The subject of series [6] is Staphylococcus aureus. The series is described as follows: Antibacterial activity against methicillin-resistant Staphylococcus aureus ATCC 43300 assessed as growth inhibition at 32 ug/ml after 18 hrs by monochromator plate assay relative to control. Format: functional.
For series [7], the system named is Cryptococcus neoformans. The experiment in a line: Antifungal activity against Cryptococcus neoformans var. grubii ATCC 208821 assessed as growth inhibition at 32 ug/ml after 36 hrs by monochromator plate assay relative to control. The settings on record: dose 32.0 µg/ml. Format: functional.
For series [8], the system named is Acinetobacter baumannii. The experiment in a line: Antibacterial activity against Acinetobacter baumannii ATCC 19606 assessed as growth inhibition after 18 hrs by monochromator plate assay. Format: functional.
Series [9] deals with Klebsiella pneumoniae. The experiment in a line: Antibacterial activity against Klebsiella pneumoniae ATCC 700603 assessed as growth inhibition after 18 hrs by monochromator plate assay. It counts as functional.
For series [10], the system named is Candida albicans. The experiment in a line: Antifungal activity against Candida albicans ATCC 90028 assessed as growth inhibition at 32 ug/ml after 36 hrs by monochromator plate assay relative to control. Format: functional.
In series [11] the test system is Candida albicans. The experiment in a line: Antifungal activity against Candida albicans ATCC 90028 assessed as growth inhibition after 36 hrs by monochromator plate assay. Format: functional.
Series [12] concerns Acinetobacter baumannii. The experiment in a line: Antibacterial activity against Acinetobacter baumannii ATCC 19606 assessed as growth inhibition at 32 ug/ml after 18 hrs by monochromator plate assay relative to control. It counts as functional. Conditions: for inhibition: dose 32.0 µg/ml.
Series [13] deals with Staphylococcus aureus. The series is described as follows: Antibacterial activity against methicillin-resistant Staphylococcus aureus ATCC 43300 assessed as growth inhibition after 18 hrs by monochromator plate assay. It counts as functional.
Series [14] has as its system Escherichia coli. The experiment in a line: Antibacterial activity against Escherichia coli ATCC 25922 assessed as growth inhibition after 18 hrs by monochromator plate assay. Format: functional.
For series [15], the system named is Escherichia coli. The experiment in a line: Antibacterial activity against Escherichia coli ATCC 25922 assessed as growth inhibition at 32 ug/ml after 18 hrs by monochromator plate assay relative to control. Format: functional. The settings on record: dose 32.0 µg/ml.
For series [16], the system named is Cryptococcus neoformans. The series is described as follows: Antifungal activity against Cryptococcus neoformans var. grubii ATCC 208821) assessed as growth inhibition after 36 hrs by monochromator plate assay relative to control. Format: functional.
A further series concerns Streptococcus pneumoniae. The experiment in a line: Antibacterial activity against Streptococcus pneumoniae assessed as reduction in bacterial growth by CLSI based broth microdilution method. It counts as functional. Conditions: time 18 hrs.
Series [17] relates to Staphylococcus aureus. The experiment in a line: Antibacterial activity against methicillin-resistant Staphylococcus aureus assessed as reduction in bacterial growth by CLSI based broth microdilution method. It counts as functional. The settings on record: time 18 hrs. (In general: In broth dilution the organism is exposed to a series of concentrations in liquid medium.)
Series [18] has as its system Escherichia coli. The series is described as follows: Antibacterial activity against Escherichia coli assessed as reduction in bacterial growth by CLSI based broth microdilution method. It counts as functional. Conditions: time 18 hrs.
The next series has as its system Enterococcus faecalis. The series is described as follows: Antibacterial activity against vancomycin resistant Enterococcus faecalis assessed as reduction in bacterial growth by CLSI based broth microdilution method. It counts as functional. The settings on record: time 18 hrs.
Series [19] is described as follows: Inhibition of Escherichia coli DNA topoisomerase 4 assessed as reduction in decatenation of kinetoplast DNA measured after 1 hr by agarose gel electrophoresis method.

In general, MIC refers to the lowest concentration found to suppress growth. The CC50 is the concentration giving 50% cytotoxicity. Broadly, the HC50 is the concentration giving 50% haemolysis. The term inhibition denotes how much of the control response was suppressed. Turning to `Cc1nc(-c2ccc(-c3ccccc3)cc2)sc1-c1cc(C(=O)Nc2ccccc2)n[nH]1`, the MIC with Pseudomonas aeruginosa [1] is more than 32 µg/mL; in the series with Acinetobacter baumannii [8] it was more than 32 µg/mL; in the series with Klebsiella pneumoniae [9] it was more than 32 µg/mL; in the series with Candida albicans [11], more than 32 µg/mL; in the series on Staphylococcus aureus [13], 4 µg/mL (≈ 9.16 µM). Moreover, the CC50 at 20 h in series [2] was more than 32 µg/mL. The compound further registered an HC10 with Blood of more than 32 µg/mL. The compound further yielded an HC50 at 1.167 h in series [3] of more than 32 µg/mL. For the same compound, the inhibition at 32 µg/mL was found to be 9.9% in the series with Klebsiella pneumoniae [4]; 16.6% with Pseudomonas aeruginosa [5]; 85.1% in the series with Staphylococcus aureus [6]; 9.6% in the series on Candida albicans [10]; 1.6% in the series on Acinetobacter baumannii [12]. In addition, the inhibition entry in the series with Cryptococcus neoformans [7] and in the series on Escherichia coli [15] was “inactive” each time. In addition, the MIC result in the series on Escherichia coli [14] and in the series with Cryptococcus neoformans [16] was “inactive” in each case.

In the case of `Clc1cccc(-n2nc(C3CCNCC3)cc2/C=C/c2c[nH]c3ccc(Cl)cc23)c1`, the MIC in the series with Streptococcus pneumoniae worked out at 2 µg/mL (≈ 4.57 µM); with Staphylococcus aureus [17], 2 µg/mL (≈ 4.57 µM); in the series with Escherichia coli [18], 16 µg/mL (≈ 36.6 µM); in the series on Enterococcus faecalis, 2 µg/mL (≈ 4.57 µM).

In the series on Blood, `CC[C@H](C)[C@H](NC(=O)CN)C(=O)NCC(=O)N[C@@H](C)C(=O)N[C@H](C(=O)N[C@@H](CC(C)C)C(=O)N[C@@H](CCCCN)C(=O)N[C@H](C(=O)N[C@@H](CC(C)C)C(=O)N[C@H](C(=O)N[C@H](C(=O)NCC(=O)N[C@@H](CC(C)C)C(=O)N1CCC[C@H]1C(=O)N[C@@H](C)C(=O)N[C@@H](CC(C)C)C(=O)N[C@H](C(=O)N[C@@H](CO)C(=O)N[C@@H](Cc1c[nH]c2ccccc12)C(=O)N[C@H](C(=O)N[C@@H](CCCCN)C(=O)N[C@@H](CCCNC(=N)N)C(=O)N[C@@H](CCCCN)C(=O)N[C@@H](CCCNC(=N)N)C(=O)N[C@@H](CCC(N)=O)C(=O)N[C@@H](CCC(N)=O)C(N)=O)[C@@H](C)CC)[C@@H](C)CC)[C@@H](C)O)[C@@H](C)O)C(C)C)C(C)C` [MELITTIN] returned an HC10 of 2.7 µg/mL. Besides, in series [3], the HC50 at 1.167 h was determined as 8.5 µg/mL.

For `Cc1nc(-c2ccc(I)cc2)sc1-c1cc(C(=O)NC2CCCCC2)n[nH]1`, the MIC with Pseudomonas aeruginosa [1], in the series on Klebsiella pneumoniae [9], with Candida albicans [11] and in the series with Staphylococcus aureus [13] was more than 32 µg/mL each time. Besides, the inhibition at 32 µg/mL with Klebsiella pneumoniae [4] amounted to 6.9%; in the series with Pseudomonas aeruginosa [5], 17.8%; with Staphylococcus aureus [6], 12.9%; in the series with Candida albicans [10], 40.5%. For the same compound, the inhibition entry in the series with Cryptococcus neoformans [7], with Acinetobacter baumannii [12] and with Escherichia coli [15] was “inactive” in each case. Also, the MIC entry with Acinetobacter baumannii [8], in the series with Escherichia coli [14] and in the series on Cryptococcus neoformans [16] was “inactive” in each case.

Consider `Cc1nc(-c2ccc(-c3ccccc3)cc2)sc1-c1cc(C(=O)Nc2ccc(C(C)(C)C)cc2)n[nH]1`, for which the MIC in the series on Pseudomonas aeruginosa [1], in the series on Acinetobacter baumannii [8], in the series with Klebsiella pneumoniae [9], in the series with Candida albicans [11] and with Staphylococcus aureus [13] was more than 32 µg/mL in each case. Also, the inhibition at 32 µg/mL in the series on Klebsiella pneumoniae [4] turned out to be 5.2%; in the series on Pseudomonas aeruginosa [5], 2.2%; with Staphylococcus aureus [6] it was 13.2%; in the series with Candida albicans [10] it was 5.2%; in the series on Acinetobacter baumannii [12], 3%. Further, the inhibition result in the series on Cryptococcus neoformans [7] and with Escherichia coli [15] was “inactive” in each case. Besides, the MIC entry in the series with Escherichia coli [14] and with Cryptococcus neoformans [16] was “inactive” in each case.

Turning to `Cc1nc(-c2ccc(-c3ccccc3)cc2)sc1-c1cc(C(=O)Nc2ccc(OC(F)F)cc2)n[nH]1`, the MIC in the series on Pseudomonas aeruginosa [1], in the series on Klebsiella pneumoniae [9], in the series with Candida albicans [11] and in the series on Staphylococcus aureus [13] was more than 32 µg/mL each time. Further, the inhibition at 32 µg/mL in the series on Klebsiella pneumoniae [4] is 5%; in the series with Pseudomonas aeruginosa [5], 7.1%; in the series with Staphylococcus aureus [6] it was 3.6%; in the series on Candida albicans [10] it was 4.7%. Moreover, the inhibition entry in the series on Cryptococcus neoformans [7], in the series with Acinetobacter baumannii [12] and with Escherichia coli [15] was “inactive” throughout. The MIC entry in the series with Acinetobacter baumannii [8], with Escherichia coli [14] and in the series with Cryptococcus neoformans [16] was “inactive” in each case.

Take `Cc1nc(-c2ccc(-c3cccc4ccccc34)cc2)sc1-c1cc(C(=O)NC2CCCCC2)n[nH]1`: the MIC in the series on Pseudomonas aeruginosa [1], in the series with Candida albicans [11] and in the series on Staphylococcus aureus [13] was more than 32 µg/mL each time. The inhibition result in the series on Klebsiella pneumoniae [4], in the series on Cryptococcus neoformans [7], with Acinetobacter baumannii [12] and with Escherichia coli [15] was “inactive” throughout. Besides, the inhibition at 32 µg/mL with Pseudomonas aeruginosa [5] worked out at 6.1%; in the series with Staphylococcus aureus [6], 19.4%; in the series with Candida albicans [10], 40.8%. Moreover, the MIC result in the series with Acinetobacter baumannii [8], in the series with Klebsiella pneumoniae [9], in the series on Escherichia coli [14] and in the series with Cryptococcus neoformans [16] was “inactive” in each case.

As a reminder, the IC50 is the point on the concentration scale where inhibition reaches its midpoint. Take `c1ccc(COc2ccc(-c3cc(C4CCNCC4)[nH]n3)cc2)cc1`: the IC50 in series [19] was found to be 128 µg/mL (≈ 384 µM). Also, the MIC in the series with Staphylococcus aureus [17] and in the series with Enterococcus faecalis was 64 µg/mL (≈ 192 µM) in each case.

On to `CCOC(=O)c1cc(-c2sc(-c3ccc(-c4ccccc4)cc3)nc2C)[nH]n1`, for which the MIC with Pseudomonas aeruginosa [1], in the series with Acinetobacter baumannii [8], in the series with Candida albicans [11] and with Staphylococcus aureus [13] was more than 32 µg/mL throughout. Further, the inhibition entry with Klebsiella pneumoniae [4], in the series with Cryptococcus neoformans [7] and in the series on Escherichia coli [15] was “inactive” throughout. The inhibition at 32 µg/mL in the series with Pseudomonas aeruginosa [5] was 1.5%; in the series on Staphylococcus aureus [6] it was 13.6%; in the series on Candida albicans [10], 5.6%; with Acinetobacter baumannii [12], 2.8%. For the same compound, the MIC result with Klebsiella pneumoniae [9], with Escherichia coli [14] and in the series with Cryptococcus neoformans [16] was “inactive” each time.
